Source: PubChem BioAssay AID1919000 (Molecular Pharmacology Branch, DTP, NCI, 2023)
pIC50: −log10 of the molar value.

Test system: 653999-131-R-J2-PDC complex spheroids, growth % test/control
Assay: Anticancer human tumor 653999-131-R-J2-PDC patient-derived lung adenocarcinoma cell line growth inhibition [AhR]
Conditions: for pIC50: curve of first compound; for viability, T/C: stronger effect = lower value; active means viability on the fitted dose curve at most 10% of control; inactive means the rest
Summary of the method: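 Agents were dosed in half-log steps down from roughly clinical Cmax, or from 10 microM where Cmax was unknown, alone and with AhR antagonists. Read-out: percent test/control growth of tumor spheroids containing HUVEC and MSC stromal cells.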

[1] = second compound 0.1 µM, first compound 0.0316 µM
[2] = second compound 0.1 µM, first compound 0.1 µM
[3] = second compound 0.1 µM, first compound 0.316 µM
[4] = second compound 0.1 µM, first compound 1 µM
[5] = second compound 0.1 µM, first compound 3.16 µM
[6] = second compound 0.1 µM, first compound 10 µM
[7] = second compound 0.316 µM, first compound 0.0316 µM
[8] = second compound 0.316 µM, first compound 0.1 µM
[9] = second compound 0.316 µM, first compound 0.316 µM
[10] = second compound 0.316 µM, first compound 1 µM
[11] = second compound 0.316 µM, first compound 3.16 µM
[12] = second compound 0.316 µM, first compound 10 µM
[13] = second compound 1 µM, first compound 0.0316 µM
[14] = second compound 1 µM, first compound 0.1 µM
[15] = second compound 1 µM, first compound 0.316 µM
[16] = second compound 1 µM, first compound 1 µM
[17] = second compound 1 µM, first compound 3.16 µM
[18] = second compound 1 µM, first compound 10 µM
[19] = second compound 3.16 µM, first compound 0.0316 µM
[20] = second compound 3.16 µM, first compound 0.1 µM
[21] = second compound 3.16 µM, first compound 0.316 µM
[22] = second compound 3.16 µM, first compound 1 µM
[23] = second compound 3.16 µM, first compound 3.16 µM
[24] = second compound 3.16 µM, first compound 10 µM
[25] = second compound 10 µM, first compound 0.0316 µM
[26] = second compound 10 µM, first compound 0.1 µM
[27] = second compound 10 µM, first compound 0.316 µM
[28] = second compound 10 µM, first compound 1 µM
[29] = second compound 10 µM, first compound 3.16 µM
[30] = second compound 10 µM, first compound 10 µM
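Further: spheroids exposed to agents for seven days.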
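Wherever viability, T/C is given: 100% = DMSO vehicle control viability.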

CC1(C)CCC(CN2CCN(c3ccc(C(=O)NS(=O)(=O)c4ccc(NCC5CCOCC5)c([N+](=O)[O-])c4)c(Oc4cnc5[nH]ccc5c4)c3)CC2)=C(c2ccc(Cl)cc2)C1 + CC(CO)NC(=O)c1cc(-c2ccc(Cl)cc2)nn(-c2cnn(C)c2)c1=O
< 5.00: pIC50 (second compound 0.1 µM) | pIC50 (second compound 0.316 µM) | pIC50 (second compound 1 µM) | pIC50 (second compound 3.16 µM) | pIC50 (second compound 10 µM)
inactive: viability, T/C [1] 105% | viability, T/C [2] 101% | viability, T/C [3] 99.6% | viability, T/C [4] 94.1% | viability, T/C [5] 108% | viability, T/C [6] 71.2% | viability, T/C [7] 98% | viability, T/C [8] 101% | viability, T/C [9] 103% | viability, T/C [10] 89.8% | viability, T/C [11] 94% | viability, T/C [12] 71% | viability, T/C [13] 90.8% | viability, T/C [14] 104% | viability, T/C [15] 107% | viability, T/C [16] 98.4% | viability, T/C [17] 103% | viability, T/C [18] 80.3% | viability, T/C [19] 96.2% | viability, T/C [20] 101% | viability, T/C [21] 106% | viability, T/C [22] 108% | viability, T/C [23] 95.3% | viability, T/C [24] 75.1% | viability, T/C [25] 99% | viability, T/C [26] 107% | viability, T/C [27] 111% | viability, T/C [28] 105% | viability, T/C [29] 92.5% | viability, T/C [30] 74.5%

CCN(c1cc(-c2ccc(CN3CCOCC3)cc2)cc(C(=O)NCc2c(C)cc(C)[nH]c2=O)c1C)C1CCOCC1 + CC(CO)NC(=O)c1cc(-c2ccc(Cl)cc2)nn(-c2cnn(C)c2)c1=O
< 5.52: pIC50 (second compound 0.1 µM) | pIC50 (second compound 0.316 µM) | pIC50 (second compound 1 µM) | pIC50 (second compound 3.16 µM) | pIC50 (second compound 10 µM)
inactive: viability, T/C (second compound 0.1 µM, first compound 0.00949 µM) 112% | viability, T/C (second compound 0.1 µM, first compound 0.03 µM) 97.6% | viability, T/C (second compound 0.1 µM, first compound 0.0949 µM) 120% | viability, T/C (second compound 0.1 µM, first compound 0.3 µM) 95.9% | viability, T/C (second compound 0.1 µM, first compound 0.949 µM) 93.9% | viability, T/C (second compound 0.1 µM, first compound 3 µM) 90% | viability, T/C (second compound 0.316 µM, first compound 0.00949 µM) 119% | viability, T/C (second compound 0.316 µM, first compound 0.03 µM) 107% | viability, T/C (second compound 0.316 µM, first compound 0.0949 µM) 101% | viability, T/C (second compound 0.316 µM, first compound 0.3 µM) 94.6% | viability, T/C (second compound 0.316 µM, first compound 0.949 µM) 101% | viability, T/C (second compound 0.316 µM, first compound 3 µM) 94.1% | viability, T/C (second compound 1 µM, first compound 0.00949 µM) 115% | viability, T/C (second compound 1 µM, first compound 0.03 µM) 134% | viability, T/C (second compound 1 µM, first compound 0.0949 µM) 115% | viability, T/C (second compound 1 µM, first compound 0.3 µM) 114% | viability, T/C (second compound 1 µM, first compound 0.949 µM) 105% | viability, T/C (second compound 1 µM, first compound 3 µM) 102% | viability, T/C (second compound 3.16 µM, first compound 0.00949 µM) 112% | viability, T/C (second compound 3.16 µM, first compound 0.03 µM) 113% | viability, T/C (second compound 3.16 µM, first compound 0.0949 µM) 119% | viability, T/C (second compound 3.16 µM, first compound 0.3 µM) 114% | viability, T/C (second compound 3.16 µM, first compound 0.949 µM) 106% | viability, T/C (second compound 3.16 µM, first compound 3 µM) 99.6% | viability, T/C (second compound 10 µM, first compound 0.00949 µM) 111% | viability, T/C (second compound 10 µM, first compound 0.03 µM) 117% | viability, T/C (second compound 10 µM, first compound 0.0949 µM) 130% | viability, T/C (second compound 10 µM, first compound 0.3 µM) 114% | viability, T/C (second compound 10 µM, first compound 0.949 µM) 105% | viability, T/C (second compound 10 µM, first compound 3 µM) 96.1%

COc1cc(Nc2ncc3c(n2)-c2ccc(Cl)cc2C(c2c(F)cccc2OC)=NC3)ccc1C(=O)O + CC(CO)NC(=O)c1cc(-c2ccc(Cl)cc2)nn(-c2cnn(C)c2)c1=O
inactive: viability, T/C [1] 95% | viability, T/C [2] 80.9% | viability, T/C [3] 77.6% | viability, T/C [4] 76.8% | viability, T/C [5] 66% | viability, T/C [6] 64% | viability, T/C [7] 92.6% | viability, T/C [8] 73.5% | viability, T/C [9] 74.8% | viability, T/C [10] 62.4% | viability, T/C [11] 70.8% | viability, T/C [12] 65.2% | viability, T/C [13] 98.2% | viability, T/C [14] 76.1% | viability, T/C [15] 83.9% | viability, T/C [16] 70.8% | viability, T/C [17] 77.8% | viability, T/C [18] 68.5% | viability, T/C [19] 94.2% | viability, T/C [20] 83% | viability, T/C [21] 79.1% | viability, T/C [22] 74.7% | viability, T/C [23] 77.5% | viability, T/C [24] 77.4% | viability, T/C [25] 92.8% | viability, T/C [26] 81% | viability, T/C [27] 78.4% | viability, T/C [28] 74% | viability, T/C [29] 67.9% | viability, T/C [30] 80.4%
< 5.00: pIC50 (second compound 0.1 µM) | pIC50 (second compound 0.316 µM) | pIC50 (second compound 1 µM) | pIC50 (second compound 3.16 µM) | pIC50 (second compound 10 µM)

Cn1ncnc1C1c2n[nH]c(=O)c3cc(F)cc(c23)NC1c1ccc(F)cc1 (stereo not given) + CC(CO)NC(=O)c1cc(-c2ccc(Cl)cc2)nn(-c2cnn(C)c2)c1=O
inactive: viability, T/C (second compound 0.1 µM, first compound 0.000316 µM) 104% | viability, T/C (second compound 0.1 µM, first compound 0.001 µM) 99.5% | viability, T/C (second compound 0.1 µM, first compound 0.00316 µM) 109% | viability, T/C (second compound 0.1 µM, first compound 0.01 µM) 101% | viability, T/C [1] 102% | viability, T/C [2] 91.9% | viability, T/C (second compound 0.316 µM, first compound 0.000316 µM) 111% | viability, T/C (second compound 0.316 µM, first compound 0.001 µM) 98.8% | viability, T/C (second compound 0.316 µM, first compound 0.00316 µM) 97.1% | viability, T/C (second compound 0.316 µM, first compound 0.01 µM) 96.3% | viability, T/C [7] 87.2% | viability, T/C [8] 102% | viability, T/C (second compound 1 µM, first compound 0.000316 µM) 105% | viability, T/C (second compound 1 µM, first compound 0.001 µM) 103% | viability, T/C (second compound 1 µM, first compound 0.00316 µM) 102% | viability, T/C (second compound 1 µM, first compound 0.01 µM) 106% | viability, T/C [13] 95.5% | viability, T/C [14] 96% | viability, T/C (second compound 3.16 µM, first compound 0.000316 µM) 99.2% | viability, T/C (second compound 3.16 µM, first compound 0.001 µM) 107% | viability, T/C (second compound 3.16 µM, first compound 0.00316 µM) 114% | viability, T/C (second compound 3.16 µM, first compound 0.01 µM) 102% | viability, T/C [19] 97.2% | viability, T/C [20] 100% | viability, T/C (second compound 10 µM, first compound 0.000316 µM) 106% | viability, T/C (second compound 10 µM, first compound 0.001 µM) 105% | viability, T/C (second compound 10 µM, first compound 0.00316 µM) 103% | viability, T/C (second compound 10 µM, first compound 0.01 µM) 97.1% | viability, T/C [25] 94.8% | viability, T/C [26] 93.2%
< 7.00: pIC50 (second compound 0.1 µM) | pIC50 (second compound 0.316 µM) | pIC50 (second compound 1 µM) | pIC50 (second compound 3.16 µM) | pIC50 (second compound 10 µM)

NS(=O)(=O)OCC1CC(n2ccc3c(NC4CCc5ccccc54)ncnc32)CC1O (stereo not given) + CC(CO)NC(=O)c1cc(-c2ccc(Cl)cc2)nn(-c2cnn(C)c2)c1=O
inactive: viability, T/C [1] 108% | viability, T/C [2] 99.8% | viability, T/C [3] 109% | viability, T/C [4] 98.9% | viability, T/C [5] 63.4% | viability, T/C [6] 51% | viability, T/C [7] 108% | viability, T/C [8] 98.7% | viability, T/C [9] 101% | viability, T/C [10] 80.4% | viability, T/C [11] 53.1% | viability, T/C [12] 54.5% | viability, T/C [13] 101% | viability, T/C [14] 111% | viability, T/C [15] 114% | viability, T/C [16] 53.8% | viability, T/C [17] 53.4% | viability, T/C [18] 52.3% | viability, T/C [19] 101% | viability, T/C [20] 102% | viability, T/C [21] 99.9% | viability, T/C [22] 54.5% | viability, T/C [23] 52% | viability, T/C [24] 58.4% | viability, T/C [25] 97.9% | viability, T/C [26] 96.9% | viability, T/C [27] 93.5% | viability, T/C [28] 54.1% | viability, T/C [29] 51% | viability, T/C [30] 56.9%
< 5.00: pIC50 (second compound 0.1 µM) | pIC50 (second compound 0.316 µM) | pIC50 (second compound 1 µM) | pIC50 (second compound 3.16 µM) | pIC50 (second compound 10 µM)
